Source: the NIST ThermoML archive (doi:10.1016/j.tca.2010.05.014)

Experiment: cn = amount concentration of the nth substance listed, in mol/dm3
Details: 101 kPa, Liquid; for viscosity: Capillary tube (Ostwald / Ubbelohde) method; for mass density: Vibrating tube method

O=C(O)CC(O)(CC(=O)O)C(=O)O [citric acid] + O
Details	mass density, c1 = 0.03 [kg/m3]	mass density, c1 = 0.05 [kg/m3]	mass density, c1 = 0.07 [kg/m3]	mass density, c1 = 0.1 [kg/m3]	viscosity, c1 = 0.03 [mPa·s]	viscosity, c1 = 0.05 [mPa·s]	viscosity, c1 = 0.07 [mPa·s]	viscosity, c1 = 0.1 [mPa·s]
298.15 K	999.5	1000.9	1002.6	1004.8	0.8766	0.8921	0.9048	0.9254
308.15 K	996.3	997.7	999.3	1001.8	0.7136	0.7253	0.7595	0.7855
318.15 K	992.5	993.8	995.4	997.9	0.6253	0.6261	0.6527	0.6766
